Source: patent publication US20140377171A1, “Imaging and Treatment of Neuroendocrine Tumors with Glucose - Dependent Insulinotropic Polypeptide or Analogues or Antagonists Thereof” (priority 2011, published 2014)

Experiments:
GIP receptor [1] = details: cited from earlier work
GIP receptor [2] = details: cited from earlier work; remark: listed apart in the source
[3] = cited from earlier work; for biological activity: truncated forms of GIP
GIP receptors = target: T1, GIP receptors (Homo sapiens, UniProt P48546); assay: In vitro GIP receptor autoradiography: displacement of 125I-GIP(1-30) in tissue sections; assay type: binding; details: increasing concentrations of cold peptide; tumor and normal pancreatic islets, all examples
T1 construct: from tissue; host or cells: fresh frozen human tumor tissue (neuroendocrine tumors) and non-neoplastic human tissue (pancreatic islets) from surgical resection
T1 sequence (P48546 22-466): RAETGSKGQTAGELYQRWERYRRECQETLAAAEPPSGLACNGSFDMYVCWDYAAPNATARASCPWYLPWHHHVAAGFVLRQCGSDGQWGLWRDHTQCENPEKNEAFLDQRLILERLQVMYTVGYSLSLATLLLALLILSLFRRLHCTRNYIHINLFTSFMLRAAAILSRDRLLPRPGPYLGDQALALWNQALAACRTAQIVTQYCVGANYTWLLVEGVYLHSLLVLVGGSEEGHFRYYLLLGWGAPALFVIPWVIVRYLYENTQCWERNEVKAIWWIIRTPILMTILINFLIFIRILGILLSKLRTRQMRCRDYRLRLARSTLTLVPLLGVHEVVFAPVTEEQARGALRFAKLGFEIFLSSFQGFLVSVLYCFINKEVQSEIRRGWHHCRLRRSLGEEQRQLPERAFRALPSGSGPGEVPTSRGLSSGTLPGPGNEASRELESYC
Experimental: It was radiolabeled by the lactoperoxidase method and purified by HPLC (Anawa, Wangen, Switzerland). The two lodo-Tyrosine analogues (peak 1 iodinated at Tyr^1 and peak 2 iodinated at Tyr^10) were analyzed by LC-ESI-MS-MS (R. Brunisholz, Functional Genomics Center Zürich, ETHZ). […] After incubation, the slides were washed five times in ice-cold Tris-HCl buffer (170 mM; pH 8.2) containing 0.25% BSA and twice in ice-cold Tris-HCl buffer without BSA. The slides were dried for 15 minutes under a stream of cold air and then exposed to Kodak films Biomax MR® for seven days at 4° C. The signals on the films were analyzed in correlation with morphology using corresponding H&E stained tissue slides. The receptor density was quantitatively assessed using tissue standards for iodinated compounds (Amersham, Aylesbury, UK) and a computer-assisted image processing system (Analysis Imaging System, Interfocus, Mering, Germany).

islet cells = assay: β-Cell imaging with GIP radioligands, ex vivo pancreas autoradiography; assay type: in vivo, Sprague-Dawley rats; details: i.v., with or without unlabeled GIP(1-30); autoradiography correlated with insulin immunostaining
Source text: Animals were euthanized and the pancreas was extracted, immediately frozen, and sectioned. The sections were apposed to radiosensitive films, scanned, and immunostained for insulin.

[4] = system: TT cells (human medullary thyroid cancer cells); details: 1 nM to 1000 nM GIP for 3 hours, supernatant
Experimental: Calcitonin levels (C, pg/ml) were determined from the cell supernatant using the Calcitonin-kit from Siemens.
TT cells (derived from a human medullary thyroid carcinoma; ATCC Number: CRL-1803) were plated in 24-well plates (100′000 cells per well) and cultured for 48 hours in growth medium (nutrient mixture F12 Ham Kaighn's modification containing L-glutamine and supplemented with 10% fetal bovine serum) at 37° C. and 5% CO2. Subsequently the growth medium was replaced by the serum-free challenge medium (RPMI 1640, 10 mM HEPES and GlutaMax-I) and the cells were incubated for further 48 hours at 37° C. and 5% CO2. […] As negative control cells were treated with challenge medium containing vehicle alone. The cells were incubated for 3 hours at 37° C. and 5% CO2.

Q: With “GIP1-14: GIP fragment capable of receptor binding (YAEGTFISDYSIAM; Gastric inhibitory polypeptide; UniProt P09681 52-65, looked up, fragment)” as the substance, how does the receptor binding (GIP receptor [1]) read?
A: Its receptor binding is “capable of receptor binding”.

Q: What about the “activation of adenylyl cyclase” value (GIP receptor [2]) of the same substance?
A: Its value is “activation of adenylyl cyclase”.

Q: For “GIP1-39: truncated form of GIP (YAEGTFISDYSIAMDKIHQQDFVNWLLAQKGKKNDWKHN; Gastric inhibitory polypeptide; UniProt P09681 52-90, looked up, fragment)”, which biological activity [3] is on record?
A: The biological activity was “retain a high degree of biological activity”.

Q: Which “functional mode at the GIP receptor” value (GIP receptor [2]) does the source give for “GIP3-42: peptide resulting from cleavage of GIP by DPP-IV; antagonist (EGTFISDYSIAMDKIHQQDFVNWLLAQKGKKNDWKHNITQ; Gastric inhibitory polypeptide; UniProt P09681 54-93, looked up, fragment)” here?
A: The value was “antagonist of GIP1-42 induced cAMP production”.

Q: And the insulinotropic activity ([3]; product of DPP-IV cleavage)?
A: Its insulinotropic activity is “lacking insulinotropic activity”.

Q: Which receptor binding (GIP receptor [1]) does the source give for “GIP6-30: GIP fragment binding with high affinity, antagonist (FISDYSIAMDKIHQQDFVNWLLAQK; Gastric inhibitory polypeptide; UniProt P09681 57-81, looked up, fragment)” here?
A: The receptor binding was “high affinity”.

Q: And the “functional mode at the GIP receptor” value (GIP receptor [2])?
A: The value was “act as antagonists”.

Q: With “GIP7-30-NH2: GIP fragment amide binding with high affinity, antagonist” as the substance, how does the receptor binding (GIP receptor [1]) read?
A: Its receptor binding is “high affinity”.

Q: What about the “functional mode at the GIP receptor” value (GIP receptor [2]) of the same substance?
A: Its value is “act as antagonists”.

Q: Which receptor binding (GIP receptor [1]) does the source give for “GIP19-30: C-terminal GIP fragment capable of receptor binding (QQDFVNWLLAQK; Gastric inhibitory polypeptide; UniProt P09681 70-81, looked up, fragment)” here?
A: The receptor binding was “capable of receptor binding”.

Q: What about the “activation of adenylyl cyclase” value (GIP receptor [2]) of the same substance?
A: The value was “activation of adenylyl cyclase”.

Q: For “GIP(1-30): truncated form of GIP; cold human GIP(1-30), parent peptide of the radioligand (YAEGTFISDYSIAMDKIHQQDFVNWLLAQK; Gastric inhibitory polypeptide; UniProt P09681 52-81, looked up, fragment)”, which biological activity [3] is on record?
A: The biological activity was “retain a high degree of biological activity”.

Q: With “GLP-2: GLP-2 receptor selective agonist (Bachem)” as the substance, how does the “displacement of 125I-GIP(1-30) (affinity)” value (GIP receptors) read?
A: Its value is “not displaced”.

Q: Which “localisation of radioligand binding in pancreas” value (islet cells) does the source give for “^111In-DOTA-GIP(1-30): GIP(1-30) carrying 111In complexed through DOTA chelator; GIP radioligand for β-cell imaging” here?
A: Its value is “restricted to islet cells”.

Q: Which “displacement of 125I-GIP(1-30) (affinity)” value (GIP receptors) does the source give for “glucagon(1-29): glucagon receptor selective agonist (Bachem)” here?
A: Its value is “not displaced”.

Q: Which calcitonin release [4] does the source give for “glucose-dependent insulinotropic polypeptide [GIP]” here?
A: The calcitonin release was “stimulates calcitonin release”.
